What is called MIC is the lowest concentration that inhibits growth of the organism.

Test [1] concerns K. pneumoniae K66-45 (NDM-1). Nature of the test: Microbroth dilution MIC of carbapenem with/without inhibitor. It is filed as cell-based. Here is the method: (§1) • Plate bacterial strain(s) on appropriate media: • Gram-negative bacteria with ESBLs or carbapenemases: green agar plates with 100 mg/L ampicillin • Gram-negative bacteria without β-lactamases: green agar plates • Gram-positive bacteria (Staphylococci and Enterococci): blood agar plates • Incubate o.n. at 37° C. […] (Should be used within 15 min of preparation). • Dilute the 0.5 McFarland suspension 1:100 into MH broth. […] Plate 10 μl of the dilution on MH agar plates (×2). Incubate o.n. at 37° C., count the colonies and calculate the final CFU/ml inoculum in the plate by multiplying the average number of colonies with 10000 and divide by 2. The final inoculum should be between 3-7×10^5 CFU/ml. • Add 50 μl of the prepared bacterial suspension to each well in the microtiter plate except negative growth control. Preparation of Compounds/Antibiotics • Calculate the desired concentration-range and volume of the compounds/antibiotics in the assay. […] Dilute the stock solution in MH broth. Make subsequent 2-fold dilutions in MH broth of the desired concentrations if a concentration range is to be tested (remember the extra dilution factor in the assay plate). Always include extra volume for pipetting. Take into consideration stock solutions that are made in buffers that have an effect on bacterial growth (e.g. DMSO).
A general note: In broth dilution the organism is exposed to a series of concentrations in liquid medium.

Test [2] concerns P. aeruginosa K34-7 (VIM-2). The description is as above. It is filed as cell-based. The following applies: for Meropenem activity (MIC) in presence of inhibitor: inhibitor 25 mg/L. Here is the method:
as §1

Test [3] concerns P. aeruginosa 50692172 (NDM-1). The experiment in a line: Microbroth dilution MIC of meropenem with/without inhibitor. It is filed as cell-based. Here is the method:
as §1

Test [4] deals with resistant gram-negative MBL-based bacteria. The experiment in a line: MICx: adjuvant concentration giving carbapenem MIC ≤ 2 mg/L. It is filed as cell-based. The following applies: lowest concentration of compound X that results in a MIC value of ≤ 2 mg/L for carbapenem antibiotics. Here is the method: as §1
Test [5] relates to human hepG2 cells. The experiment in a line: In vitro toxicity in human hepG2 cells (AlamarBlue viability). It is filed as cell-based. Here is the method:
For viability assays, cells were seeded in white 96-well Nunclon plates at a density of 20,000 cells/well and left overnight to adhere before experiments were conducted. Zn chelators dissolved in DMSO were added to white 96-well plates containing 20000 HepG2 cells/well at concentrations ranging from 1 to 1×10^−6 mM (max DMSO concentration never exceeded 1%) and incubated for 24 hours at 37° C. After 24 hours, AlamarBlue® cell viability reagent (Thermo Fisher, Carlsbad, USA) was added (10% final concentration) and incubated for 4 hours at 37° C.
For orientation: Alamar Blue is a resazurin reagent that responds to reducing activity.

Test [6] has as its system K. pneumoniae 50732159 (No MBL). Nature of the test: Microbroth dilution MIC of meropenem with/without inhibitor. It is filed as cell-based. The following applies: inhibitor 25 mg/L. Here is the method: as §1
Test [7] deals with P. aeruginosa 50808021 (No MBL). The description is as above. It is filed as cell-based. The following applies: inhibitor 25 mg/L. Here is the method:
as §1

Test [8] concerns K. pneumoniae K66-45 and P. aeruginosa K34-7. The experiment in a line: Microbroth dilution MIC, carbapenem + inhibitor, two resistant clinical isolates. It is filed as cell-based. The following applies: with meropenem. Here is the method:
• Plate bacterial strain(s) on appropriate media: • Gram-negative bacteria with ESBLs or carbapenemases: green agar plates with 100 mg/L ampicillin • Gram-negative bacteria without β-lactamases: green agar plates • Gram-positive bacteria (Staphylococci and Enterococci): blood agar plates • Incubate o.n. at 37° C. Day 2: Prepare the Bacterial Inoculum: • Prepare a 0.5 McFarland suspension of bacteria in 0.85% NaCl. (Should be used within 15 min of preparation). • Dilute the 0.5 McFarland suspension 1:100 into MH broth. Check the inoculum by diluting the prepared bacterial suspension 1:100 (10 μl bacterial suspension+990 μl 0.85% NaCl). Plate 10 μl of the dilution on MH agar plates (×2). Incubate o.n. at 37° C., count the colonies and calculate the final CFU/ml inoculum in the plate by multiplying the average number of colonies with 10000 and divide by 2. The final inoculum should be between 3-7×10^5 CFU/ml. • Add 50 μl of the prepared bacterial suspension to each well in the microtiter plate except negative growth control. Preparation of Compounds/Antibiotics • Calculate the desired concentration-range and volume of the compounds/antibiotics in the assay. […] Dilute the stock solution in MH broth. Make subsequent 2-fold dilutions in MH broth of the desired concentrations if a concentration range is to be tested (remember the extra dilution factor in the assay plate). Always include extra volume for pipetting. Take into consideration stock solutions that are made in buffers that have an effect on bacterial growth (e.g. DMSO).

The target of test [9] is VIM-2 (Escherichia coli, UniProt Q5U7L7). It is filed as biochemical. The following applies: purified VIM-2, PD-10 column. Here is the method:
The eluent used was Chelex-treated HEPES 50 mM buffer, pH 7.5. […] In all experiments, 16 aliquots of 250 μL were taken from the PD-10 column runsout and enzyme activity was analysed. Enzyme activity was measured by adding Nitrocefin as a reporter substrate (final concentration of 50 μM).
To investigate if more extreme time-dependent and concentration-dependent conditions could restore enzyme activity, aliquots having final concentrations of 30 nM column-treated enzyme and 1000 μM Zn^2+ on ice and at room temperature over prolonged time.

For test [10], the system named is K. pneumoniae K66-45. It is filed as cell-based. The following applies: inhibitor 25 mg/L. Here is the method: After plating and grown overnight at 37° C., only single colonies, ignoring any touching the edges of the plate, were counted.
10^9 CFU K66-45 (Mueller-Hinton broth, no selection) was plated and grown overnight, 37° C. Only single colonies, ignoring any touching the edges of the plate, were counted.

[11] abbreviates: human hepG2 cells, read-out: IC50h.
Where [12] appears, read: human hepG2 cells, 24 hours, AlamarBlue, 8 replicates, read-out: IC50.

Like-named read-outs stand apart in the source and are kept apart here. Marks after values point to notes of the source that are not given here. A value given as a limit tells only on which side of the number the result lay.

On to `C[C@H](CS)C(=O)N1CCC[C@H]1C(=O)O` [Captopril, reference compound], for which the “Meropenem activity in presence of inhibitor” value in [1] (inhibitor 63 mg/L, K. pneumoniae K66-45 NDM-1) is 64 mg/L; in [2] (inhibitor 63 mg/L), 32 mg/L; in test [3] (inhibitor 63 mg/L), 32 to 64 mg/L. Further, in test [4], the MICx is > 1000^d μM. In [5] (setting [11]), the IC50 worked out at 33 µM.
On to `O=C(Cc1ccc(NC(=O)c2ccc(CN(Cc3ccccn3)Cc3ccccn3)nc2)cc1)NC(CO)(CO)CO` [Example 100, 6-((bis(pyridin-2-ylmethyl)amino)methyl)-N-(4-(2-(1,3-dihydroxy-2-(hydroxymethyl)propan-2-ylamino)-2-oxoethyl)phenyl)nicotinamide], for which the “Meropenem activity in presence of inhibitor” value was 32 mg/L in [6] and more than 64 mg/L in [7]. In addition, the MICx in [4] is 31 µM. In addition, the IC50 is more than 100 µM in test [5] (setting [12]) and 118 µM in [5] (setting [11]).
Take `O=C(Cc1ccc(NC(=O)CN(CCN(Cc2ccccn2)Cc2ccccn2)Cc2ccccn2)cc1)NC[C@@H](O)CO` [Example 23, (R)-2-((2-(bis(pyridin-2-ylmethyl)amino)ethyl)(pyridin-2-ylmethyl)amino)-N-(4-(2-(2,3-dihydroxypropylamino)-2-oxoethyl)phenyl)acetamide]: the “Meropenem activity (MIC) in presence of inhibitor” value in test [2] was 1 µg/mL. Also, the “Meropenem activity in presence of inhibitor” value in test [6] is 32 mg/L; in [3] (inhibitor 25 mg/L), 1 mg/L; in test [7], more than 64 mg/L.
Turning to `CN(C[C@H](O)[C@@H](O)[C@H](O)[C@H](O)CO)C(=O)c1ccc(CN(Cc2ccccn2)Cc2ccccn2)s1` [Example 182, 5-((bis(pyridin-2-ylmethyl)amino)methyl)-N-methyl-N-((2S,3R,4R,5R)-2,3,4,5,6-pentahydroxyhexyl)thiophene-2-carboxamide], the “adjuvant effect at an inhibitor concentration of 25 mg/L” value in [8] is “completely abolishes the adjuvant effect”.
For `CN(C[C@H](O)[C@@H](O)[C@H](O)[C@H](O)CO)C(=O)Cc1ccc(NC(=O)c2ccc(CN(Cc3ccccn3)Cc3ccccn3)nc2)cc1` [Example 99, 6-((bis(pyridin-2-ylmethyl)amino)methyl)-N-(4-(2-(methyl((2S,3R,4R,5R)-2,3,4,5,6-pentahydroxyhexyl)amino)-2-oxoethyl)phenyl)nicotinamide], the “Meropenem activity in presence of inhibitor” value is 32 mg/L in [6] and more than 64 mg/L in [7]. Besides, the MICx in [4] came out at 31 µM. The IC50 in test [5] (setting [12]) and in test [5] (setting [11]) was 217 µM each time.
Take `COC(=O)c1ccc(CN(Cc2ccccn2)Cc2ccccn2)s1` [Example 180, Methyl 5-((bis(pyridin-2-ylmethyl)amino)methyl)thiophene-2-carboxylate]: the IC50 in [5] (Homo sapiens, HepG2, 24 h) was approximately 80 µM. Also, the “adjuvant effect at an inhibitor concentration of 25 mg/L” value in test [8] was “completely abolishes the adjuvant effect”.
With `CN(C[C@H](O)[C@@H](O)[C@H](O)[C@H](O)CO)C(=O)c1ccc(CN(Cc2ccccc2)Cc2ccccn2)nc1` [Example 187, 6-((benzyl(pyridin-2-ylmethyl)amino)methyl)-N-methyl-N-((2S,3R,4R,5R)-2,3,4,5,6-pentahydroxyhexyl)nicotinamide], the “adjuvant effect at an inhibitor concentration of 25 mg/L” value in [8] was “completely abolishes the adjuvant effect”.
As to `O=C(O)CN(CCN(CC(=O)O)CC(=O)O)CC(=O)O` [EDTA, ethylenediaminetetra-acetic acid, reference compound], in [4], the MICx is 15 µM. For the same compound, in test [5] (Homo sapiens, HepG2, estimated values (footnote c), read-out: IC50h), the IC50 is 30 µM. Besides, in [9], the “irreversibility of VIM-2 inhibition” value is given as “did not inhibit VIM-2 irreversibly”.
In the case of `COC(=O)[C@@H](C)NC(=O)[C@@H](C)NC(=O)Cn1cc(CN(Cc2ccccn2)Cc2ccccn2)nn1` [Example 194, Methyl (2-(4-((bis(pyridin-2-ylmethyl)amino)methyl)1H-1,2,3-triazol-1-yl)acetyl)-D-alanyl-D-alaninate, reference compound], the “Meropenem activity in presence of inhibitor” value in test [6] is 32 mg/L; in [3] (inhibitor 25 mg/L), 32 mg/L; in [7], more than 64 mg/L. Besides, the “RF - no of colonies” value in test [10] (MEM 1 mg/L) was “tntc (tntc = too numerous to count, plates containing either confluent growth or >1000 colonies)”; in [10] (MEM 2 mg/L), “tntc (tntc = too numerous to count, plates containing either confluent growth or >1000 colonies)”; in [10] (MEM 4 mg/L), “tntc (tntc = too numerous to count, plates containing either confluent growth or >1000 colonies)”; in test [10] (MEM 8 mg/L), “tntc (tntc = too numerous to count, plates containing either confluent growth or >1000 colonies)”.
Regarding `CN(C[C@H](O)[C@@H](O)[C@H](O)[C@H](O)CO)C(=O)Cc1ccc(NC(=O)CN(CCN(Cc2ccccn2)Cc2ccccn2)Cc2ccccn2)cc1` [Example 25, 2-(4-(2-((2-(bis(pyridin-2-ylmethyl)amino)ethyl)(pyridin-2-ylmethyl)amino)acetamido)phenyl)-N-methyl-N-(2,3,4,5,6-pentahydroxyhexyl)acetamide], the MIC in [1] (Klebsiella pneumoniae, inhibitor 31.25 μM, 50 μM and 100 μM, K. pneumoniae K66-45, read-out: MIC of MEM in the presence of inhibitor) was 0.125 µg/mL. Moreover, the “Meropenem activity (MIC) in presence of inhibitor” value in [2] was 2 µg/mL. Also, the “Meropenem activity in presence of inhibitor” value in test [6] is given as 64 mg/L; in test [3] (inhibitor 25 mg/L), 2 mg/L; in test [7] it was more than 64 mg/L. Besides, the MICx in test [4] stood at 31 µM. Besides, the IC50 in test [5] (setting [12]) and in test [5] (setting [11]) was 113 µM each time. The “RF - no of colonies” value in test [10] (MEM 1 mg/L) amounted to 64 colonies.
In the case of `CN(C[C@H](O)[C@@H](O)[C@H](O)[C@H](O)CO)C(=O)c1ccc(CN(Cc2ccccc2)Cc2ccccc2)nc1` [Example 185, 6-((dibenzylamino)methyl)-N-methyl-N-((2S,3R,4R,5R)-2,3,4,5,6-pentahydroxyhexyl)nicotinamide], in test [8], the “adjuvant effect at an inhibitor concentration of 25 mg/L” value is reported as “completely abolishes the adjuvant effect”.

Source of the values: patent US11649222B2, “Compounds” (UNIVERSITETET I OSLO, priority 2016, dated 2023).
